Reference: ChEMBL document CHEMBL1201862, “PubChem BioAssay data set” (2004)
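Assay format: 96-well plates, 48-hour exposure. Here, GI50 denotes the concentration required for 50% inhibition of growth.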 Calls of active or inactive are those of the source. No stated cut-off is given here; in the data, active = GI50 up to about 1.1 µM and inactive = higher.

How the values were obtained:
Assay in all cases: NCI-60 cell line screen, 48 h
SW-620 = system: SW-620
T47D = system: T47D
KM12 = system: KM12
RPMI-8226 = system: RPMI-8226
IGROV-1 = system: IGROV-1
M14 = system: M14
PC-3 = system: PC-3
DU-145 = system: DU-145
HCC 2998 = system: HCC 2998
NCI-H226 = system: NCI-H226
NCI-H522 = system: NCI-H522
UACC-257 = system: UACC-257
HOP-62 = system: HOP-62
LOX IMVI = system: LOX IMVI
HCT-116 = system: HCT-116
SF-539 = system: SF-539
SK-MEL-2 = system: SK-MEL-2
CAKI-1 = system: CAKI-1
A498 = system: A498

Structure (SMILES) | GI50 (SW-620) | GI50 (T47D) | GI50 (KM12) | GI50 (RPMI-8226) | GI50 (IGROV-1) | GI50 (M14) | GI50 (PC-3) | GI50 (DU-145) | GI50 (HCC 2998) | GI50 (NCI-H226) | GI50 (NCI-H522) | GI50 (UACC-257) | GI50 (HOP-62) | GI50 (LOX IMVI) | GI50 (HCT-116) | GI50 (SF-539) | GI50 (SK-MEL-2) | GI50 (CAKI-1) | GI50 (A498)
CC1(C)C2CCC1C(=O)[C@@]1(C=CC(=O)CC1)C2 (some centres undefined) | > 100 µM (inactive) | > 100 µM (inactive) | > 100 µM (inactive) | > 100 µM (inactive) | > 100 µM (inactive) | > 100 µM (inactive) | > 100 µM (inactive) | > 100 µM (inactive) | > 100 µM (inactive) | > 100 µM (inactive) | > 100 µM (inactive) | > 100 µM (inactive) | > 100 µM (inactive) | > 100 µM (inactive) | > 100 µM (inactive) | > 100 µM (inactive) | – | – | –
O=C1C(=Cc2ccccc2[N+](=O)[O-])N=C(c2ccccc2)N1n1c(-c2ccccc2)nc2ccccc2c1=O | 32.7 µM (inactive) | 21 µM (inactive) | 26.9 µM (inactive) | 20.5 µM (inactive) | 32.2 µM (inactive) | 42.5 µM (inactive) | 27.3 µM (inactive) | 33.5 µM (inactive) | 35.8 µM (inactive) | 32.5 µM (inactive) | 17 µM (inactive) | 24.8 µM (inactive) | 28.6 µM (inactive) | 29.4 µM (inactive) | 17 µM (inactive) | 25.8 µM (inactive) | 29.4 µM (inactive) | 39.1 µM (inactive) | –
CCn1c(O)c(C(=O)NC(C)c2ccc([N+](=O)[O-])cc2)c(=O)n(CC)c1=S (centres undefined) | 2.43 µM (inactive) | 3.33 µM (inactive) | 2.01 µM (inactive) | 1.43 µM (inactive) | 2.75 µM (inactive) | 2.6 µM (inactive) | 0.773 µM (active) | 2.54 µM (inactive) | 3.29 µM (inactive) | 2.75 µM (inactive) | – | 3.85 µM (inactive) | 2.31 µM (inactive) | 2.31 µM (inactive) | 1.64 µM (inactive) | 3.93 µM (inactive) | 1.02 µM (active) | 2.55 µM (inactive) | –
O=c1oc2ccccc2c(Nc2ccc3c(c2)Sc2ccccc2O3)c1[N+](=O)[O-] | – | 20.8 µM (inactive) | 24.7 µM (inactive) | 13.7 µM (inactive) | 26.2 µM (inactive) | 27.4 µM (inactive) | 19.4 µM (inactive) | 27.8 µM (inactive) | 20.4 µM (inactive) | 23.2 µM (inactive) | 16.4 µM (inactive) | 18.5 µM (inactive) | 29.4 µM (inactive) | 33.3 µM (inactive) | 25.5 µM (inactive) | 26.3 µM (inactive) | 20.5 µM (inactive) | 26.1 µM (inactive) | –
Cc1nn(C(=O)c2ccc(Cl)cc2)c2c1C(c1ccccc1O)SC(=N)N2 (centres undefined) | > 10 µM (inactive) | > 10 µM (inactive) | > 10 µM (inactive) | > 10 µM (inactive) | > 10 µM (inactive) | > 10 µM (inactive) | > 10 µM (inactive) | > 10 µM (inactive) | > 10 µM (inactive) | > 10 µM (inactive) | > 10 µM (inactive) | > 10 µM (inactive) | > 10 µM (inactive) | > 10 µM (inactive) | > 10 µM (inactive) | > 10 µM (inactive) | > 10 µM (inactive) | > 10 µM (inactive) | –
CCOC(=O)C1=C(C)OC2(O)C=CC(O)=C3C(=O)N(c4ccccc4)C(=O)C312 (centres undefined) | – | 45.1 µM (inactive) | 38.6 µM (inactive) | 14.9 µM (inactive) | 29 µM (inactive) | 50.5 µM (inactive) | 35.3 µM (inactive) | 36.7 µM (inactive) | 37.3 µM (inactive) | 34.2 µM (inactive) | 18.5 µM (inactive) | 39.1 µM (inactive) | 53.5 µM (inactive) | 21.8 µM (inactive) | 54.8 µM (inactive) | 29.1 µM (inactive) | 30.5 µM (inactive) | 48.8 µM (inactive) | –
NCC1Nc2ccccc2[C@@H](O)C1O (some centres undefined) | > 100 µM (inactive) | > 100 µM (inactive) | > 100 µM (inactive) | > 100 µM (inactive) | > 100 µM (inactive) | > 100 µM (inactive) | > 100 µM (inactive) | > 100 µM (inactive) | > 100 µM (inactive) | > 100 µM (inactive) | – | > 100 µM (inactive) | > 100 µM (inactive) | > 100 µM (inactive) | > 100 µM (inactive) | > 100 µM (inactive) | > 100 µM (inactive) | > 100 µM (inactive) | –
Cc1ccc2c(O)cc(-c3cc4ccccc4s3)nc2n1 | > 100 µM (inactive) | 2.13 µM (inactive) | > 73.1 µM (inactive) | 4.33 µM (inactive) | 6.65 µM (inactive) | > 100 µM (inactive) | > 100 µM (inactive) | > 100 µM (inactive) | > 100 µM (inactive) | 14.2 µM (inactive) | 33.9 µM (inactive) | > 100 µM (inactive) | 31.7 µM (inactive) | > 94.6 µM (inactive) | > 100 µM (inactive) | – | > 100 µM (inactive) | 55 µM (inactive) | –
O=Cc1coc2ccccc2c1=O | 18.5 µM (inactive) | 48.1 µM (inactive) | 24.2 µM (inactive) | 15.3 µM (inactive) | 15.7 µM (inactive) | 17.9 µM (inactive) | 18.8 µM (inactive) | 40.6 µM (inactive) | – | 37.7 µM (inactive) | 19.1 µM (inactive) | 18.7 µM (inactive) | 19.1 µM (inactive) | 16.9 µM (inactive) | 16.5 µM (inactive) | 16.1 µM (inactive) | – | 19.2 µM (inactive) | 44.2 µM (inactive)
COc1cc(C2c3c(ccc4ccccc34)C(=O)C3CCC(=O)N32)cc(OC)c1O (centres undefined) | > 25 µM (inactive) | > 25 µM (inactive) | > 25 µM (inactive) | > 25 µM (inactive) | > 25 µM (inactive) | > 25 µM (inactive) | > 25 µM (inactive) | > 25 µM (inactive) | – | > 25 µM (inactive) | – | > 25 µM (inactive) | > 25 µM (inactive) | – | > 25 µM (inactive) | > 25 µM (inactive) | > 25 µM (inactive) | – | > 25 µM (inactive)
COC(=O)CCn1cnc2c(SC)ncnc21 | > 100 µM (inactive) | > 100 µM (inactive) | > 100 µM (inactive) | > 100 µM (inactive) | > 100 µM (inactive) | > 100 µM (inactive) | > 100 µM (inactive) | > 100 µM (inactive) | – | > 100 µM (inactive) | > 100 µM (inactive) | > 100 µM (inactive) | > 100 µM (inactive) | > 100 µM (inactive) | > 100 µM (inactive) | > 100 µM (inactive) | – | > 100 µM (inactive) | > 100 µM (inactive)
O=C(O)C(C1NCCS1)N1Cc2ccccc2C1 (centres undefined) | > 100 µM (inactive) | > 100 µM (inactive) | > 100 µM (inactive) | > 100 µM (inactive) | > 100 µM (inactive) | > 100 µM (inactive) | > 100 µM (inactive) | > 100 µM (inactive) | – | > 100 µM (inactive) | – | > 100 µM (inactive) | > 100 µM (inactive) | > 100 µM (inactive) | > 100 µM (inactive) | > 100 µM (inactive) | > 100 µM (inactive) | > 100 µM (inactive) | > 100 µM (inactive)
COc1ccccc1N1CCN(S(=O)(=O)c2ccc(Cl)cc2)C1=N | 64.6 µM (inactive) | 68.7 µM (inactive) | 82.4 µM (inactive) | 93.8 µM (inactive) | – | 26.2 µM (inactive) | 56.8 µM (inactive) | 47.5 µM (inactive) | – | – | 40.5 µM (inactive) | 41.6 µM (inactive) | > 100 µM (inactive) | – | 27.9 µM (inactive) | 81.3 µM (inactive) | 57.4 µM (inactive) | > 100 µM (inactive) | > 100 µM (inactive)
N=C(N)NC(=N)Nc1c(F)c(F)c(F)c(F)c1F | > 100 µM (inactive) | 61.8 µM (inactive) | > 100 µM (inactive) | 52.7 µM (inactive) | > 100 µM (inactive) | 21.1 µM (inactive) | 97.9 µM (inactive) | > 100 µM (inactive) | – | > 100 µM (inactive) | 93.8 µM (inactive) | 23.6 µM (inactive) | > 100 µM (inactive) | – | 70.5 µM (inactive) | > 100 µM (inactive) | > 100 µM (inactive) | > 100 µM (inactive) | > 100 µM (inactive)
COC(=O)N[C@@H]1C[C@H]2CC[C@]1(O[Si](C(C)C)(C(C)C)C(C)C)C(=O)C2 | 27.7 µM (inactive) | 19 µM (inactive) | 18.2 µM (inactive) | 15.8 µM (inactive) | 13.6 µM (inactive) | 18.5 µM (inactive) | 12.9 µM (inactive) | > 100 µM (inactive) | – | 14.2 µM (inactive) | 8.59 µM (inactive) | 11.8 µM (inactive) | 21.4 µM (inactive) | – | 18.5 µM (inactive) | – | 17.4 µM (inactive) | 23.9 µM (inactive) | 21.4 µM (inactive)
Nn1c(CCCCCCCCc2nnc(-c3c(O)ccc4ccccc34)n2N)nnc1-c1c(O)ccc2ccccc12 | > 100 µM (inactive) | > 100 µM (inactive) | > 100 µM (inactive) | > 100 µM (inactive) | > 100 µM (inactive) | > 100 µM (inactive) | > 100 µM (inactive) | > 100 µM (inactive) | > 100 µM (inactive) | > 100 µM (inactive) | > 100 µM (inactive) | > 100 µM (inactive) | > 100 µM (inactive) | > 100 µM (inactive) | > 100 µM (inactive) | > 100 µM (inactive) | > 100 µM (inactive) | > 100 µM (inactive) | –
